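Five concentrations, 48 hours, 96-well plates. GI50 = concentration required for 50% inhibition of growth.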 Activity calls are given as the source filed them. No stated cut-off is given here; in the data, active = GI50 up to about 1.1 µM and inactive = higher.
Key:
Assay in all cases: inhibition of tumour cell growth, NCI panel, 48 h
[1] = test system: SK-MEL-28
[2] = test system: M14
[3] = test system: EKVX
[4] = test system: CCRF-CEM
[5] = test system: COLO 205
[6] = test system: IGROV-1
[7] = test system: M19-MEL
[8] = test system: HOP-92
[9] = test system: TK-10
[10] = test system: HT-29
[11] = test system: UACC-62
[12] = test system: CAKI-1
[13] = test system: DMS-273
[14] = test system: LOX IMVI
[15] = test system: HOP-18
[16] = test system: SF-268
[17] = test system: RXF 393
[18] = test system: NCI-H226
[19] = test system: SNB-78
[20] = test system: K562
[21] = test system: OVCAR-3
[22] = test system: NCI-H23
[23] = test system: HOP-62
[24] = test system: Malme-3M
[25] = test system: UO-31
[26] = test system: XF498
[27] = test system: A498
[28] = test system: HCT-15
[29] = test system: DLD-1
[30] = test system: KM-20L2
[31] = test system: OVCAR-8
[32] = test system: SF-539
[33] = test system: U-251
[34] = test system: OVCAR-5
[35] = test system: RXF 631
[36] = test system: OVCAR-4
[37] = test system: DMS-114
[38] = test system: HL-60
[39] = test system: LXFL 529
[40] = test system: HCT-116
[41] = test system: SW-620
[42] = test system: SNB-75
[43] = test system: RPMI-8226
[44] = test system: SN12C
[45] = test system: NCI-H460
[46] = test system: NCI-H522
[47] = test system: ACHN
[48] = test system: SNB-19
[49] = test system: SF-295
[50] = test system: KM12
[51] = test system: UACC-257
[52] = test system: A549
[53] = test system: 786-0
[54] = test system: MOLT-4
[55] = test system: SK-MEL-5
[56] = test system: DU-145
[57] = test system: SK-OV-3
[58] = test system: HCC 2998
[59] = test system: SK-MEL-2
[60] = test system: SR

Compound: COc1cc(CCc2ccncc2)cc(OC)c1OC
- GI50 [1]: > 100 µM (inactive)
- GI50 [2]: > 100 µM (inactive)
- GI50 [3]: > 100 µM (inactive)
- GI50 [4]: > 100 µM (inactive)
- GI50 [5]: > 100 µM (inactive)
- GI50 [6]: > 100 µM (inactive)
- GI50 [7]: > 100 µM (inactive)
- GI50 [8]: > 100 µM (inactive)
- GI50 [9]: > 100 µM (inactive)
- GI50 [10]: > 100 µM (inactive)
- GI50 [11]: > 100 µM (inactive)
- GI50 [12]: > 100 µM (inactive)
- GI50 [13]: > 100 µM (inactive)
- GI50 [14]: > 100 µM (inactive)
- GI50 [15]: > 100 µM (inactive)
- GI50 [16]: > 100 µM (inactive)
- GI50 [17]: > 100 µM (inactive)
- GI50 [18]: > 100 µM (inactive)
- GI50 [19]: > 100 µM (inactive)
- GI50 [20]: > 100 µM (inactive)
- GI50 [21]: > 100 µM (inactive)
- GI50 [22]: > 100 µM (inactive)
- GI50 [23]: > 100 µM (inactive)
- GI50 [24]: > 100 µM (inactive)
- GI50 [25]: > 100 µM (inactive)
- GI50 [26]: > 100 µM (inactive)
- GI50 [27]: > 100 µM (inactive)
- GI50 [28]: > 100 µM
- GI50 [29]: > 100 µM (inactive)
- GI50 [30]: > 100 µM (inactive)
- GI50 [31]: > 100 µM (inactive)
- GI50 [32]: > 100 µM (inactive)
- GI50 [33]: > 100 µM (inactive)
- GI50 [34]: > 100 µM (inactive)
- GI50 [35]: > 100 µM (inactive)
- GI50 [36]: > 100 µM (inactive)
- GI50 [37]: > 100 µM (inactive)
- GI50 [38]: > 100 µM (inactive)
- GI50 [39]: > 100 µM (inactive)
- GI50 [40]: > 100 µM (inactive)
- GI50 [41]: > 100 µM (inactive)
- GI50 [42]: > 100 µM (inactive)
- GI50 [43]: > 100 µM (inactive)
- GI50 [44]: > 100 µM (inactive)
- GI50 [45]: > 100 µM (inactive)
- GI50 [46]: > 100 µM (inactive)
- GI50 [47]: > 100 µM (inactive)
- GI50 [48]: > 100 µM (inactive)
- GI50 [49]: > 100 µM (inactive)
- GI50 [50]: > 100 µM (inactive)
- GI50 [51]: > 100 µM (inactive)
- GI50 [52]: > 100 µM (inactive)
- GI50 [53]: > 100 µM (inactive)
- GI50 [54]: > 100 µM (inactive)
- GI50 [55]: > 100 µM (inactive)

Compound: C=C=C(Sc1ccccc1)C(C)(C)O
- GI50 [1]: > 100 µM (inactive)
- GI50 [2]: > 100 µM (inactive)
- GI50 [56]: > 100 µM (inactive)
- GI50 [57]: > 100 µM (inactive)
- GI50 [4]: > 100 µM (inactive)
- GI50 [5]: > 100 µM (inactive)
- GI50 [6]: > 100 µM (inactive)
- GI50 [7]: > 100 µM (inactive)
- GI50 [8]: > 100 µM (inactive)
- GI50 [9]: > 100 µM (inactive)
- GI50 [10]: > 100 µM (inactive)
- GI50 [11]: > 100 µM (inactive)
- GI50 [58]: > 100 µM (inactive)
- GI50 [14]: > 100 µM (inactive)
- GI50 [15]: > 100 µM (inactive)
- GI50 [16]: > 100 µM (inactive)
- GI50 [17]: > 100 µM (inactive)
- GI50 [18]: > 100 µM (inactive)
- GI50 [20]: > 100 µM (inactive)
- GI50 [21]: > 100 µM (inactive)
- GI50 [22]: > 100 µM (inactive)
- GI50 [24]: > 100 µM (inactive)
- GI50 [25]: > 100 µM (inactive)
- GI50 [26]: > 100 µM (inactive)
- GI50 [27]: > 100 µM (inactive)
- GI50 [28]: > 100 µM
- GI50 [29]: > 100 µM (inactive)
- GI50 [59]: > 100 µM (inactive)
- GI50 [30]: > 100 µM (inactive)
- GI50 [31]: > 100 µM (inactive)
- GI50 [32]: > 100 µM (inactive)
- GI50 [33]: > 100 µM (inactive)
- GI50 [34]: > 100 µM (inactive)
- GI50 [35]: > 100 µM (inactive)
- GI50 [36]: > 100 µM (inactive)
- GI50 [38]: > 100 µM (inactive)
- GI50 [39]: > 100 µM (inactive)
- GI50 [40]: > 100 µM (inactive)
- GI50 [41]: > 100 µM (inactive)
- GI50 [42]: 38.6 µM (inactive)
- GI50 [43]: > 100 µM (inactive)
- GI50 [44]: > 100 µM (inactive)
- GI50 [45]: > 100 µM (inactive)
- GI50 [46]: 0.399 µM (active)
- GI50 [47]: > 100 µM (inactive)
- GI50 [48]: > 100 µM (inactive)
- GI50 [49]: > 100 µM (inactive)
- GI50 [50]: > 100 µM (inactive)
- GI50 [51]: > 100 µM (inactive)
- GI50 [53]: > 100 µM (inactive)
- GI50 [60]: > 100 µM (inactive)
- GI50 [54]: > 100 µM (inactive)
